Laboratory results taken from US20240180872A1, “METHODS AND COMPOUNDS OF CANNABIDIOL, MELATONIN AND AKBA FOR TREATING PANCREATIC CANCER” (priority 2021, published 2024).

Experiments:
[1] = tested on: PCEM004a endometrial cancer cell line; assay: Cytotoxicity assay (MTT, 72 hours, daily administration) in PCEM004a; assay type: cell-based; conditions: Homo sapiens, read-out: % VIABILITY ± S.D.
From the text: (§1) The combinations were effective in other human tumor cell lines and we tested in glioblastoma cell line and endometrial cancer cell Additional tests include data obtained from two independent experiments, six wells for dose.

MIAPaCa-2 cell line = assay: Cytotoxicity assay (MTT, 72 hours, daily administration) in MIAPaCa-2; conditions: Homo sapiens, MIA PaCa-2, read-out: % VIABILITY ± S.D.
Protocol: (§2) Human pancreatic ductal adenocarcinoma (PANC-1 and MIAPaCa-2) cell lines were purchased by Sigma Aldrich (Milan, Italy) and cultured in DMEM high glucose medium (EuroClone, Milan, Italy) supplemented with 10% of fetal bovine serum (FBS), 2 mM L-glutamine, 100 IU/mL penicillin, 100 mg streptomycin and 1 mM sodium pyruvate. Cell lines were maintained at 37° C. with 5% CO2 and 95% of humidity.
(§3) 3×10^4 cells/mL were seeded in 96-well plates in a final volume of 100 L/well. After one day of incubation, compounds or vehicles, alone or in combination, were added and six replicates were used for each treatment and all experiments were repeated three times. In all the experiments, the treatment was daily added, after washing with fresh medium. After 72 hours cell viability was investigated by adding 0.8 mg/mL of 3-[4,5-dimethylthiazol-2-yl]-2,5 diphenyl tetrazolium bromide (MTT) (Sigma Aldrich) to the media. After 3 h the supernatant was removed, and the pellet of salt crystals was solubilized with 100 μL/well of DMSO. The absorbance of the sample against a background control was measured at 570 nm using an ELISA reader microliter plate (BioTek Instruments, Winooski, VT, USA).
(§4) Cytotoxicity in PDAC cell lines: The effect of CBD, MLT and AKBA in reducing cell viability was evaluated at 72 hours, post daily administration, in PDAC cell lines. Cells were treated with different doses of CBD, MLT and AKBA (up to 1 mg) and percentage of cell viability was evaluated by the MTT assay. […] The compounds were administered daily for 72 hours, as in previous experiments at the desired doses. […] MTT assay was used to analyse the cell cytotoxicity.

[2] = tested on: pancreatic adenocarcinoma associated genes; assay: TaqMan Array gene expression in PANC-1, normalized for GAPDH; conditions: 24 hs, CBD 3.8, MLT 200, AKBA 7.5 micrograms/ml
Protocol: Total RNA from untreated or CBD, MLT, AKBA alone and in combination treated cell lines was extracted using Rneasy Mini kit (Qiagen, Milan, Italy). One microgram of total RNA from each sample was subjected to reverse transcription in a total volume of 20 μL using the High-Capacity cDNA Archive Kit (Applied Biosystem, Foster City, […], USA) according to the instructions. cDNAs were analyzed by qRT-PCR performed using an IQ5 Multicolor Real time PCR Detection system. Quantitative real-time gene expression was performed with the TaqMan® Array Human Pancreatic Adenocarcinoma 96-well Plate, containing 92 assays to pancreatic adenocarcinoma associated genes and 4 assays to candidate endogenous control genes, was purchased (Thermo Fisher, Grand Island, NY, USA) and used to evaluate the treatments in modulating PDAC-related genes (Table 1). Measurement of different housekeeping genes (GAPDH; HPRT1; GUSB) on the samples was used to normalize mRNA content. The gene expression levels of treated cell lines were expressed as relative fold compared with untreated or vehicle-treated cells.
To elucidate the molecular events induced by CBD, MLT and AKBA alone and in combination, 92 genes involved in PDAC progression and aggressiveness were evaluated by Taqman Array. Both cell lines were treated with CBD, MLT and AKBA alone and in combination, and the molecular pathways of PDAC associated gene were evaluated.
Target mRNA levels were normalized for GAPDH expression.

[3] = tested on: U251 Glioblastoma cell line; assay: Cytotoxicity assay (MTT, 72 hours, daily administration) in U251; assay type: cell-based; conditions: Homo sapiens, U-251, read-out: % VIABILITY ± S.D.
From the text: as §1

PANC-1 cell line = assay: Cytotoxicity assay (MTT, 72 hours, daily administration) in PANC-1; conditions: Homo sapiens, PANC-1, read-out: % VIABILITY ± S.D.
Protocol: as §2, §3, §4

## CC(=O)O[C@@H]1CC[C@@]2(C)[C@@H](CC[C@]3(C)[C@@H]2C(=O)C=C2[C@@H]4[C@@H](C)[C@H](C)CC[C@]4(C)CC[C@]23C)[C@@]1(C)C(=O)O [AKBA, (3R,4R,4aR,6aR,6bS,8aR,11R,12S,12aR,14aR,14bS)-3-acetyloxy-4,6a,6b,8a,11,12,14b-heptamethyl-14-oxo-1,2,3,4a,5,6,7,8,9,10,11,12,12a, 14a-tetradecahydropicene-4-carboxylic acid]
[1]; AKBA 5 micrograms/ml
  viability at 5 µg/mL: 100 ± 7.5%
[1]; AKBA 7.5 micrograms/ml
  viability at 7.5 µg/mL: 98.4 ± 6.3%
[1]; AKBA 10 micrograms/ml
  viability at 10 µg/mL: 87.4 ± 5.8%
[1]; AKBA 15 micrograms/ml
  viability at 15 µg/mL: 60.2 ± 5.4%
MIAPaCa-2 cell line
  viability at 5 µg/mL: 110 ± 7.3%
  viability at 7.5 µg/mL: 74.8 ± 6.2%
  viability at 10 µg/mL: 55.3 ± 4.8%
  viability at 15 µg/mL: 12.1 ± 0.9%
[2]; VEI 0.00
  AKT3 mRNA relative expression: 0.00
  ARHGEF7 mRNA relative expression: 0.00
  BCL2 mRNA relative expression: 0.00
  CCND2 mRNA relative expression: 0.00
  CDKN2B mRNA relative expression: 0.20
  CYP2E1 mRNA relative expression: 0.00
  EGF mRNA relative expression: 0.00
  IGF1 mRNA relative expression: 0.00
  IL6 mRNA relative expression: 0.00
  KDR mRNA relative expression: 0.00
  KIT mRNA relative expression: 0.00
  MAPK3 mRNA relative expression: 0.00
  MMP1 mRNA relative expression: 0.02
  MMP3 mRNA relative expression: 0.00
  TGFA mRNA relative expression: 0.02
  TGFB2 mRNA relative expression: 0.12
[2]; VEI 0.01
  JAK2 mRNA relative expression: 0.04
  JAK3 mRNA relative expression: 0.03
  MMP7 mRNA relative expression: 0.03
  MMP9 mRNA relative expression: 0.03
  PK3CA mRNA relative expression: 0.02
  RAC2 mRNA relative expression: 0.01
  RB1 mRNA relative expression: 0.15
  TGFB3 mRNA relative expression: 0.05
[2]; VEI 0.02
  TGFBR1 mRNA relative expression: 0.07
[2]; VEI 0.03
  BRCA2 mRNA relative expression: 0.10
  CDKN2D mRNA relative expression: 0.05
  MDM2 mRNA relative expression: 0.04
  RHOB mRNA relative expression: 0.05
[2]; VEI 0.04
  CDKN2C mRNA relative expression: 0.12
  PK3R1 mRNA relative expression: 0.03
  PTGS2 mRNA relative expression: 0.08
  STATSB mRNA relative expression: 0.20
[2]; VEI 0.05
  MAPK1 mRNA relative expression: 0.60
  SMAD2 mRNA relative expression: 0.04
[2]; VEI 0.06
  CCND1 mRNA relative expression: 0.10
  MAP2K2 mRNA relative expression: 0.10
  PK3CD mRNA relative expression: 0.05
  TGFBR2 mRNA relative expression: 0.10
  VEGFA mRNA relative expression: 0.45
  VEGFB mRNA relative expression: 0.18
[2]; VEI 0.07
  CCNA2 mRNA relative expression: 0.10
  CCNE2 mRNA relative expression: 0.06
  EZF3 mRNA relative expression: 0.07
  SMAD4 mRNA relative expression: 0.09
  SOS1 mRNA relative expression: 0.10
  TGFB1 mRNA relative expression: 0.15
[2]; VEI 0.08
  MAP2K1 mRNA relative expression: 0.10
  MMP2 mRNA relative expression: 0.20
  VEGFC mRNA relative expression: 0.12
[2]; VEI 0.09
  CCNE1 mRNA relative expression: 0.10
  CDK2 mRNA relative expression: 0.10
  KRAS mRNA relative expression: 0.09
  RAC1 mRNA relative expression: 0.10
  REL mRNA relative expression: 0.08
  STAT2 mRNA relative expression: 0.11
[2]; VEI 0.10
  CDKN1B mRNA relative expression: 0.10
  CDKN2A mRNA relative expression: 0.12
  RELA mRNA relative expression: 0.10
[2]; VEI 0.11
  AKT1 mRNA relative expression: 0.20
  PK3CB mRNA relative expression: 0.16
[2]; VEI 0.14
  FIGF mRNA relative expression: 0.00
  TP53 mRNA relative expression: 0.38
[2]; VEI 0.16
  EZF4 mRNA relative expression: 0.18
  NFKB2 mRNA relative expression: 0.10
[2]; VEI 0.17
  EZF1 mRNA relative expression: 0.14
  SMAD3 mRNA relative expression: 0.20
[2]; VEI 0.18
  STAT1 mRNA relative expression: 0.31
[2]; VEI 0.22
  BRAF mRNA relative expression: 0.18
[2]; VEI 0.23
  BIRC5 mRNA relative expression: 0.22
  JAK1 mRNA relative expression: 1.10
[2]; VEI 0.24
  CDK4 mRNA relative expression: 0.25
  EGFR mRNA relative expression: 0.18
[2]; VEI 0.25
  RAF1 mRNA relative expression: 0.08
[2]; VEI 0.27
  CCNB1 mRNA relative expression: 0.20
  ERBB2 mRNA relative expression: 0.07
  SRC mRNA relative expression: 0.14
[2]; VEI 0.31
  GRB2 mRNA relative expression: 0.38
[2]; VEI 0.35
  BCL2L1 mRNA relative expression: 0.23
  HSP90AA1 mRNA relative expression: 0.22
  NFKB1 mRNA relative expression: 0.10
[2]; VEI 0.37
  RHOA mRNA relative expression: 0.30
[2]; VEI 0.41
  ELK1 mRNA relative expression: 0.11
[2]; VEI 0.42
  RELB mRNA relative expression: 0.12
[2]; VEI 0.45
  CDC42 mRNA relative expression: 0.02
[2]; VEI 0.49
  CDKN1A mRNA relative expression: 0.28
[2]; VEI 0.50
  AKT2 mRNA relative expression: 0.41
[2]; VEI 0.53
  HBEGF mRNA relative expression: 0.44
[2]; VEI 1.03
  NOTCH1 mRNA relative expression: 0.05
[2]; VEI 1.38
  STAT6 mRNA relative expression: 0.13
[2]; VEI 4.45
  STAT3 mRNA relative expression: 0.18
[3]; AKBA 5 micrograms/ml
  viability at 5 µg/mL: 100 ± 5.3%
[3]; AKBA 7.5 micrograms/ml
  viability at 7.5 µg/mL: 100 ± 6.6%
[3]; AKBA 10 micrograms/ml
  viability at 10 µg/mL: 100 ± 2.2%
[3]; AKBA 15 micrograms/ml
  viability at 15 µg/mL: 76.4 ± 4.2%
PANC-1 cell line
  viability at 5 µg/mL: 92.1 ± 5.3%
  viability at 7.5 µg/mL: 86.2 ± 6.6%
  viability at 10 µg/mL: 78.2 ± 5.9%
  viability at 15 µg/mL: 55.3 ± 4.4%
